Source: US20210130473A1, “TGFßR1 INHIBITOR-ASGR ANTIBODY CONJUGATES AND USES THEREOF” (Silverback Therapeutics, Inc., priority 2019, published 2021)

Tests used:
[1] = tested on: TGFβ/SMAD Signaling Pathway SBE reporter cell line; assay: TGFb reporter assay in HEK293 SBE-LUC reporter cells (luciferase); type: cell-based; details: Homo sapiens, key of the table says IC50, read-out: EC50 (the source's name)
Description: TGFβ/SMAD Signaling Pathway SBE reporter cell line was obtained from BPS Bioscience. Cells are passed, expanded, and stored in liquid nitrogen as per the supplier's instructions with the exception that growth media is changed to DMEM-C with Geneticin (DMEM supplemented with 10% fetal bovine serum, 1×NEAA, 1 mM Pyruvate, 2 mM glutamine, 50 μg/mL penicillin, 50 U/mL streptomycin and 400 μg/mL of Geneticin). The assay media is MEM supplemented with 0.5% fetal bovine serum, 1×NEAA, 1 mM Pyruvate, 50 μg/mL penicillin and 50 U/mL streptomycin.
Compounds are assayed to measure their activity as ALK5 inhibitors.
The HEK293 SBE-LUC reporter cells from Example 15 were grown in DMEM-C with Geneticin (DMEM supplemented with […], 1×NEAA, 1 mM Pyruvate, 2 mM glutamine, 50 μg/mL penicillin, 50 U/mL streptomycin and 400 ug/mL of Geneticin). The assay media was MEM supplemented with 0.5% fetal bovine serum, 1×NEAA, 1 mM Pyruvate, 50 μg/mL penicillin and 50 U/mL streptomycin.
The HEK293 SBE-LUC reporter cells were harvested from the tissue culture flasks by incubation in small quantity of Versene at room temperature for three to five minutes after the media in the flask is removed and cells rinsed with PBS. Cells were counted and diluted in the assay media at ˜0.8×10^6 cells/mL then 50 uL/well were added to 96-well assay plate. Test samples (at desired concentrations diluted in assay media) were added to assay plate containing the 50 uL/well of cells (or media only), 50 uL per well, and incubated for 5-6 hours at 37° C. in a 5% CO2 humidified incubator. After that time, 15 uL of TGFb diluted to 12.5 ng/mL in the assay media was added to the plate. Controls included TGFb titration (from 25 to 0 ng/mL) without inhibitors, and media only (without cells, inhibitor or TGFb). Plates were incubated at 37° C. in a 5% CO2 humidified incubator for 18h. Luciferase substrate solution was subsequently added at 75 uL per well, incubated in dark with shaking at room temperature for 10 min, and luminescence was measured using a luminometer.

ALK5 = target: T1, ALK5 (Homo sapiens, UniProt P36897); assay: ALK5 enzyme inhibition assay (casein substrate, 10 uM ATP, 33P-ATP, filter-binding; Reaction Biology Corp); type: biochemical
T1 construct: purchased Reaction Biology Corp (Malvern, Pa.)
T1 sequence (P36897 34-503): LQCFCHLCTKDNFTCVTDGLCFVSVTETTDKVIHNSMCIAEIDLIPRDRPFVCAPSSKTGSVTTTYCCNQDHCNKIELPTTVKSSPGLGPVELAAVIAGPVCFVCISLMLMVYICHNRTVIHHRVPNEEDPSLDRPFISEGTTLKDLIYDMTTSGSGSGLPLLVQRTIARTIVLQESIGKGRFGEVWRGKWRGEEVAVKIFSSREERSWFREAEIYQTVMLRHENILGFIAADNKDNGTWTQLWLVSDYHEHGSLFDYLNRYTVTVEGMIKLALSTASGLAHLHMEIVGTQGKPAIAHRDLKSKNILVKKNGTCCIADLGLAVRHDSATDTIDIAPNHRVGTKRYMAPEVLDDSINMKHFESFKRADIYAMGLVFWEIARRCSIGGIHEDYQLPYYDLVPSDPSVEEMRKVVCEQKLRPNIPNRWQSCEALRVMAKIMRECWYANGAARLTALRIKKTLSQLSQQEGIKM
Description: ALK5 enzyme inhibition assays were performed by Reaction Biology Corp (Malvern, Pa.). 1 mg/mL of peptide substrate (casein) and 10 uM ATP were prepared in a mixture of fresh reaction buffer. The kinase was delivered into the substrate solution which was gently mixed. Compounds in 100% DMSO were added to the kinase reaction mixture by Acoustic technology (Echo550; nanoliter range) and the mixture was incubated for 20 min at room temperature. ^33P-ATP (Specific activity 10 uCi/uL) was added into the reaction mixture to initiate the reaction and the reaction mixture was incubated for 2 hours at room temperature. Radioactivity was detected by filter-binding method and kinase activity data were expressed as the percent remaining kinase activity in test samples compared to vehicle (dimethyl sulfoxide) reactions. IC50 values and curve fits were obtained using Prism (GraphPad Software).

SMILES | IC50 [1] | IC50 (ALK5; Table 12) | IC50 (ALK5; Table 11)
Cc1cccc(-c2nc(CNc3cccc4c3CCC4N)[nH]c2-c2ccc3ncnn3c2)n1 (stereo not shown) [Compound 1.6] | 100 to 1000 nM | 100 to 1000 nM | –
Cc1cccc(-c2nc(CNCc3ccccc3-c3ccccc3)[nH]c2-c2ccc3c(c2)OCO3)n1 [Compound 71] | 100 to 1000 nM | – | 0.1 to 50 nM
Cc1cccc(-c2nc(CNCc3ccccc3-c3ccc(F)cc3)[nH]c2-c2ccc3ncnn3c2)n1 [Compound 35] | 0.1 to 10 nM | – | 0.1 to 50 nM
Cc1cccc(-c2nc(CNCc3ccccc3-c3cccc(CN)c3)[nH]c2-c2ccc3ncnn3c2)n1 [Compound 33] | 100 to 1000 nM | – | 100 to 1000 nM
Cc1cccc(-c2nc(CNCc3cc(Cl)ccc3Cl)[nH]c2-c2ccc3ncnn3c2)n1 [Compound 5] | 10 to 100 nM | – | 50 to 100 nM
Cc1cccc(-c2nc(CN[C@@H](CO)c3ccccc3)[nH]c2-c2ccc3ncnn3c2)n1 [Compound 14] | 10 to 100 nM | – | 50 to 100 nM
Cc1cccc(-c2nc(CNCc3ccccc3C3CCCC3)[nH]c2-c2ccc3ncnn3c2)n1 [Compound 44] | 10 to 100 nM | – | 100 to 1000 nM
Cc1cccc(-c2nc(CN[C@H](C)c3ccccc3)[nH]c2-c2ccc3ncnn3c2)n1 [Compound 11] | 10 to 100 nM | – | 100 to 1000 nM
Cc1cccc(-c2nc(CNCc3ccccc3-c3ccccc3CN)[nH]c2-c2ccc3ncnn3c2)n1 [Compound 32] | 100 to 1000 nM | – | 100 to 1000 nM
Cc1cccc(-c2nc(CNc3ccc4c(c3)C(N)CC4)[nH]c2-c2ccc3ncnn3c2)n1 (stereo not shown) [Compound 1.21] | 100 to 1000 nM | 100 to 1000 nM | –
Cc1cccc(-c2nc(CNc3ccc4c(c3)CC(N)C4)[nH]c2-c2ccc3ncnn3c2)n1 (stereo not shown) [Compound 1.24] | 100 to 1000 nM | 100 to 1000 nM | –
Cc1cccc(-c2nc(CNCCc3c(F)cccc3F)[nH]c2-c2ccc3c(c2)OCO3)n1 [Compound 81] | 10 to 100 nM | – | 0.1 to 50 nM
Cc1cccc(-c2nc(CNCCN(C)c3ccccc3)[nH]c2-c2ccc3ncnn3c2)n1 [Compound 67] | 0.1 to 10 nM | – | 50 to 100 nM
Cc1cccc(-c2nc(CNCc3ccccc3-c3ccc(CNC(=O)OC(C)(C)C)cc3)[nH]c2-c2ccc3ncnn3c2)n1 [Compound 31] | 100 to 1000 nM | – | 100 to 1000 nM

Results, then the compound that gave them:

IC50 [1] | IC50 (ALK5; Table 12) | IC50 (ALK5; Table 11) | SMILES
0.1 to 10 nM | – | 0.1 to 50 nM | Cc1cccc(-c2nc(CNCc3ccccc3F)[nH]c2-c2ccc3ncnn3c2)n1 [Compound 18]
0.1 to 10 nM | – | 100 to 1000 nM | COc1ccccc1CCNCc1nc(-c2cccc(C)n2)c(-c2ccc3ncccc3n2)[nH]1 [Compound 84]
100 to 1000 nM | – | 1000 to 10000 nM | Cc1cccc(-c2nc(CNCc3ccccc3C#N)[nH]c2-c2ccc3ncnn3c2)n1 [Compound 20]
0.1 to 10 nM | – | 0.1 to 50 nM | Cc1cccc(-c2nc(CNCc3ccccc3Cl)[nH]c2-c2ccn3ncnc3c2)n1 [Compound 10]
10 to 100 nM | – | 100 to 1000 nM | Cc1cccc(-c2nc(CNCc3ccccc3-c3ccccn3)[nH]c2-c2ccc3ncnn3c2)n1 [Compound 40]
0.1 to 10 nM | – | 0.1 to 50 nM | Cc1cccc(-c2nc(CNCc3ccccc3C)[nH]c2-c2ccc3nccnc3c2)n1 [Compound 86]
0.1 to 10 nM | – | 0.1 to 50 nM | CCc1ccccc1CNCc1nc(-c2cccc(C)n2)c(-c2ccc3ncnn3c2)[nH]1 [Compound 22]
0.1 to 10 nM | – | 50 to 100 nM | Cc1cccc(-c2nc(CNCc3ccccc3-c3cccnc3)[nH]c2-c2ccc3ncnn3c2)n1 [Compound 41]
0.1 to 10 nM | – | 0.1 to 50 nM | Cc1cccc(-c2nc(CNCc3ccccc3-c3ccccc3)[nH]c2-c2ccc3ncnn3c2)n1 [Compound 24]
0.1 to 10 nM | – | 50 to 100 nM | Cc1cccc(-c2nc(CNCc3ccccc3)[nH]c2-c2ccc3ncccc3c2)n1 [Compound 90]
0.1 to 10 nM | – | 50 to 100 nM | Cc1cccc(-c2nc(CNCc3ccccc3C)[nH]c2-c2ccc3ncccc3n2)n1 [Compound 83]
10 to 100 nM | – | 50 to 100 nM | Cc1cccc(-c2nc(CNCc3ccccc3-c3cccc(F)c3)[nH]c2-c2ccc3ncnn3c2)n1 [Compound 37]
